Test results taken from ChEMBL document CHEMBL1909046, “DrugMatrix in vitro pharmacology data”.

Key:
[1] = target: T1, Vasoactive intestinal polypeptide receptor 1 (Homo sapiens, UniProt P32241); type: cell membranes, Membrane; details: ht-29; note: in other assays of this panel Not Active means under 50% inhibition at 10 µM
T1 sequence (P32241 whole entry): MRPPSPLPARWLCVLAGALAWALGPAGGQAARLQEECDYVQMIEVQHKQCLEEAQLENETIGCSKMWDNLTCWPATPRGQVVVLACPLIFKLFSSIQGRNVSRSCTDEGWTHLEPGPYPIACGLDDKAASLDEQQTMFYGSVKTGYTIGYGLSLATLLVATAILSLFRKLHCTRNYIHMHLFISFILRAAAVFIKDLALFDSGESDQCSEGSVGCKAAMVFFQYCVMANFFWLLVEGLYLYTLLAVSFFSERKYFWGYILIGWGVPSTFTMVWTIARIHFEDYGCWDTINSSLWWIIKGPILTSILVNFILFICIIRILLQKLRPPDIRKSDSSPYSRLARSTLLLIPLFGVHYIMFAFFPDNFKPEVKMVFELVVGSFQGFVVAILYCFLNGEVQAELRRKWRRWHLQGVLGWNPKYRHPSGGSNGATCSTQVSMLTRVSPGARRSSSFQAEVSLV

[2] = target: T2, Alpha-2C adrenergic receptor (Homo sapiens, UniProt P18825); experiment: DRUGMATRIX: Adrenergic Alpha-2C radioligand binding (ligand: [3H] MK-912); type: cell membranes, Sf9, Membrane; details: sf9; note: call rule not given here
T2 sequence (P18825 whole entry): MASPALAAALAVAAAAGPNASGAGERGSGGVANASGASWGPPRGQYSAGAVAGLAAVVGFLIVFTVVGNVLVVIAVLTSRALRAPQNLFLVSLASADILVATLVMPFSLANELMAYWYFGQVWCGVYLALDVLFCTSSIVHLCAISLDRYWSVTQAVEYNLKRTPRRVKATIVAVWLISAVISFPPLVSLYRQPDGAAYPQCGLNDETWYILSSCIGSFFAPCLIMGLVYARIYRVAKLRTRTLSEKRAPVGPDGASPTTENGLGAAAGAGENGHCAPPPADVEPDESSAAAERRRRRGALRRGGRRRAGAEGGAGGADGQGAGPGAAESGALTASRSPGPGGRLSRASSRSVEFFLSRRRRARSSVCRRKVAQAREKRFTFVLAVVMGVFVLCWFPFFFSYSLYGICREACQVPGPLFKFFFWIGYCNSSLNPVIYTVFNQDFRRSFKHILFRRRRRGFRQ

B2 bradykinin receptor = target: T3, B2 bradykinin receptor (Homo sapiens, UniProt P30411); type: cell membranes, Membrane; details: chem-1; note: in other assays of this panel Not Active means under 50% inhibition at 10 µM
T3 sequence (P30411 whole entry): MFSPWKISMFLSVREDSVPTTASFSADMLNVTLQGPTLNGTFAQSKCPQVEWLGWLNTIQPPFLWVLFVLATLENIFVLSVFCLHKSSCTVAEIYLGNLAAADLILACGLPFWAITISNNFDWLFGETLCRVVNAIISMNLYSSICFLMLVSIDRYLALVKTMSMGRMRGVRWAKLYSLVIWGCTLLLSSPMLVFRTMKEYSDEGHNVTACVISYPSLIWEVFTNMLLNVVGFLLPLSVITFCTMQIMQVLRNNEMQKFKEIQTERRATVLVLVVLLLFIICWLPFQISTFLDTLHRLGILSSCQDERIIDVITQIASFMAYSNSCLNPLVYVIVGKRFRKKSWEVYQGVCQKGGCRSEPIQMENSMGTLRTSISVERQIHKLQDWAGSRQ

Cathepsin G = target: T4, Cathepsin G (Homo sapiens, UniProt P08311); type: tissue-based; details: neutrophil;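 note: inhibition of Cathepsin G enzyme activity, tested on an AMC-conjugated peptide substrate; in other assays of this panel Not Active means under 50% inhibition at 10 µM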
T4 sequence (P08311 whole entry): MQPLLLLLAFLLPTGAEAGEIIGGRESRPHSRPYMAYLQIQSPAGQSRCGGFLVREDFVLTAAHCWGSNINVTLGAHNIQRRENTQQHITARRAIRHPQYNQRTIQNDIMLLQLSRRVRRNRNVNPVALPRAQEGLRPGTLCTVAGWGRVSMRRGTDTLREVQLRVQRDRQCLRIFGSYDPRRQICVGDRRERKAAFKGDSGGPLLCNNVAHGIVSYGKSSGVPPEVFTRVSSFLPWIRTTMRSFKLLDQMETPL

Endothelin-1 receptor = target: T5, Endothelin-1 receptor (Homo sapiens, UniProt P25101); type: cell membranes, Membrane; details: cho-k1; note: in other assays of this panel Not Active means under 50% inhibition at 10 µM
T5 sequence (P25101 whole entry): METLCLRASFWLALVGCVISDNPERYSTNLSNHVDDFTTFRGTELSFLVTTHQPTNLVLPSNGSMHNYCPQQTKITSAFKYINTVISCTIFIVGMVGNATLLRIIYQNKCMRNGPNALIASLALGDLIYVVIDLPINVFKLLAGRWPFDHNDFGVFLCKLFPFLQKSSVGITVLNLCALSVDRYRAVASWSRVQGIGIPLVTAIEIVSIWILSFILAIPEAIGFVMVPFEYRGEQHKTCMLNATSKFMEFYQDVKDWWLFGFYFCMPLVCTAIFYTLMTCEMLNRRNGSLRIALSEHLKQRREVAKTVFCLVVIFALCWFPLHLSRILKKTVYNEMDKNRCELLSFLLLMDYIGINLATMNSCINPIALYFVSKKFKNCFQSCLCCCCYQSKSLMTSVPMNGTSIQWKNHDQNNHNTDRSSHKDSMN

Adenosine receptor A1 = target: T6, Adenosine receptor A1 (Homo sapiens, UniProt P30542); type: cell membranes, Membrane; details: cho
T6 sequence (P30542 whole entry): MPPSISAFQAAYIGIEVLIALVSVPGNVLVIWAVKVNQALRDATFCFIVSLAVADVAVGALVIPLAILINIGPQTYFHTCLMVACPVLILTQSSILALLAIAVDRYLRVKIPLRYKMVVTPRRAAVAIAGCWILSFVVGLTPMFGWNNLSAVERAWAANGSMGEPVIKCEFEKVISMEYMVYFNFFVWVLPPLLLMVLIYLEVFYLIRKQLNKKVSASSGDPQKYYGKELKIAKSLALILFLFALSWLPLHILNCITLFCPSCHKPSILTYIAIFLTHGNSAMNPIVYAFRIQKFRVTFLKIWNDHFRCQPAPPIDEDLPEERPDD

Measured: IC50

CC(=O)OCC(=O)[C@@]1(O)CC[C@H]2[C@@H]3CCC4=CC(=O)CC[C@]4(C)[C@H]3C(=O)C[C@@]21C [CORTISONE ACETATE]
Not Active: all assays above

O=c1ccc2ccccc2o1 [COUMARIN]
Not Active: all assays above

C[C@@H]1C[C@@H]([C@H](O)CC2CC(=O)NC(=O)C2)C(=O)[C@@H](C)C1 [CYCLOHEXIMIDE]
Not Active: all assays above

C/C=C/C[C@@H](C)[C@@H](O)[C@H]1C(=O)N[C@@H](CC)C(=O)N(C)CC(=O)N(C)[C@@H](CC(C)C)C(=O)N[C@@H](C(C)C)C(=O)N(C)[C@@H](CC(C)C)C(=O)N[C@@H](C)C(=O)N[C@H](C)C(=O)N(C)[C@@H](CC(C)C)C(=O)N(C)[C@@H](CC(C)C)C(=O)N(C)[C@@H](C(C)C)C(=O)N1C [CYCLOSPORINE]
Not Active: all assays above

CN(C)/N=N/c1[nH]cnc1C(N)=O [DACARBAZINE]
Not Active: all assays above

COc1ccc2c(c1)[C@]13CCCC[C@@H]1[C@H](C2)N(C)CC3 [DEXTROMETHORPHAN]
Not Active: all assays above

CC(=O)Nc1c(I)c(NC(C)=O)c(I)c(C(=O)O)c1I [DIATRIZOIC ACID]
Not Active: all assays above

COP(=O)(OC)OC=C(Cl)Cl [DICHLORVOS]
Not Active: all assays above

O=C(O)Cc1ccccc1Nc1c(Cl)cccc1Cl [DICLOFENAC]
Not Active: all assays above

C[C@H]1O[C@@H](O[C@H]2[C@@H](O)C[C@H](O[C@H]3[C@@H](O)C[C@H](O[C@H]4CC[C@@]5(C)[C@H](CC[C@@H]6[C@@H]5CC[C@]5(C)[C@@H](C7=CC(=O)OC7)CC[C@]65O)C4)O[C@@H]3C)O[C@@H]2C)C[C@H](O)[C@@H]1O [DIGITOXIN]
Not Active: all assays above

CCN1CC(CCN2CCOCC2)C(c2ccccc2)(c2ccccc2)C1=O (stereo unspecified) [DOXAPRAM]
Not Active: all assays above
